Source: patent US20260007133A1, “HERBICIDAL COMPOSITION COMPRISING AZINE COMPOUNDS” (BASF SE, priority 2022, published 2026)
Where two headings read alike, the source gives them in different places.

What was measured:
Format in all cases: in vivo
Lolium multiflorum = assay: Greenhouse pre-emergence (PRE) herbicidal test on LOLMU; conditions: Lolium multiflorum, pre-emergence
Summary of the method: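 Visual 0–100 rating at 20 days after treatment; 0 = normal growth, 100 = no emergence or complete kill of shoots. Pre-emergent application to seeded pots of loamy sand (~3.0% humus), species-dependent temperature 10-25° C or 20-35° C.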

Setaria viridis = assay: Greenhouse pre-emergence (PRE) herbicidal test on SETVI; conditions: Setaria viridis, pre-emergence
Summary of the method: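 Damage was rated visually on a 0 to 100 scale at 20 days after treatment, where 0 meant normal growth and 100 meant no emergence or complete kill of above-ground parts. Compounds were applied in water to freshly sown loamy-sand pots.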

Digitaria sanguinalis = assay: Greenhouse post-emergence (POST) herbicidal test on DIGSA; conditions: Digitaria sanguinalis, post-emergence, POST
Summary of the method: (§1)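 POST spray at 3–15 cm plant height, BBCH stage as given; loamy sand, ~3.0% humus; 10-25° C / 20-35° C per species; 0–100 damage scale; read 20 DAT.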

Euphorbia heterophylla = assay: Greenhouse post-emergence (POST) herbicidal test on EPHHL; conditions: Euphorbia heterophylla, post-emergence
Summary of the method: as §1

Geranium pusillum = assay: Greenhouse post-emergence (POST) herbicidal test on GERPU; conditions: Geranium pusillum, post-emergence; for inhibition at 2 g/ha: use rate 2 gai/ha, read-out: % activity
Summary of the method: as §1

Ipomoea hederacea = assay: Greenhouse post-emergence (POST) herbicidal test on IPOHE; conditions: Ipomoea hederacea, post-emergence
Summary of the method: as §1

COc1c(Br)cc(F)c(F)c1Nc1nc(N)nc(C(C)(C)F)n1 [Compound I-2]
pest or weed control at 8 g/ha (Lolium multiflorum; 432 h, PRE, LOLMU, I-2 solo 8 gai/ha, 18 DAT): 30% | inhibition at 2 g/ha (Lolium multiflorum; 480 h, LOLMU PRE, 20 DAT, use rate 2 gai/ha, read-out: % activity): 10% | inhibition at 8 g/ha (Lolium multiflorum; 480 h, LOLMU PRE, 20 DAT, use rate 8 gai/ha, read-out: % activity): 15% | pest or weed control at 2 g/ha (Lolium multiflorum; 480 h, PRE, 2 gai/ha, 20 DAT, read-out: % activity): 10% | inhibition at 2 g/ha (Lolium multiflorum; 480 h, PRE, LOLMU, 2 gai/ha, 20 DAT, read-out: % activity solo application): 15% | inhibition at 8 g/ha (Lolium multiflorum; 480 h, PRE, LOLMU, 8 gai/ha, 20 DAT, read-out: % activity solo application): 90% | inhibition at 2 g/ha (Lolium multiflorum; 480 h, PRE, LOLMU, use rate 2 gai/ha, 20 DAT, read-out: solo application % activity): 15% | inhibition at 2 g/ha (Lolium multiflorum; 480 h, PRE, use rate 2 gai/ha, 20 DAT, read-out: % activity): 20% | inhibition at 8 g/ha (Lolium multiflorum; 480 h, PRE, use rate 8 gai/ha, 20 DAT, read-out: % activity): 85% | inhibition at 2 g/ha (Lolium multiflorum; LOLMU PRE, use rate 2 gai/ha, read-out: % activity): 35% | inhibition at 2 g/ha (Lolium multiflorum; PRE, LOLMU, use rate 2 gai/ha, read-out: % activity): 40% | inhibition at 8 g/ha (Lolium multiflorum; PRE, LOLMU, use rate 8 gai/ha, read-out: % activity): 60% | pest or weed control at 2 g/ha (Setaria viridis; 432 h, PRE, SETVI, I-2 solo 2 gai/ha, 18 DAT): 70% | pest or weed control at 2 g/ha (Setaria viridis; 480 h, PRE, 2 gai/ha, 20 DAT): 10% | inhibition at 2 g/ha (Setaria viridis; 480 h, PRE, SETVI, 2 gai/ha, 20 DAT, read-out: % activity solo application): 25% | inhibition at 2 g/ha (Setaria viridis; 480 h, SETVI PRE, 20 DAT, use rate 2 gai/ha, read-out: % activity): 10% | inhibition at 2 g/ha (Setaria viridis; PRE, SETVI, use rate 2 gai/ha, read-out: % activity): 10% | inhibition at 4 g/ha (Setaria viridis; PRE, SETVI, use rate 4 gai/ha): 30% | pest or weed control at 2 g/ha (Digitaria sanguinalis; 432 h, DIGSA, I-2 solo 2 gai/ha, 18 DAT): 0% | pest or weed control at 8 g/ha (Digitaria sanguinalis; 480 h, 8 gai/ha, 20 DAT): 65% | inhibition at 2 g/ha (Digitaria sanguinalis; 480 h, DIGSA, 2 gai/ha, 20 DAT, read-out: % activity solo application): 0% | inhibition at 8 g/ha (Digitaria sanguinalis; 480 h, DIGSA, 8 gai/ha, 20 DAT, read-out: % activity solo application): 20% | inhibition at 2 g/ha (Digitaria sanguinalis; 480 h, DIGSA, use rate 2 gai/ha, 20 DAT, read-out: solo application % activity): 0% | inhibition at 8 g/ha (Digitaria sanguinalis; 480 h, DIGSA, use rate 8 gai/ha, 20 DAT, read-out: solo application % activity): 20% | pest or weed control at 2 g/ha (Euphorbia heterophylla; 432 h, POST, EPHHL, I-2 solo 2 gai/ha, 18 DAT): 25% | inhibition at 2 g/ha (Euphorbia heterophylla; 480 h, EPHHL POST, 20 DAT, use rate 2 gai/ha, read-out: % activity): 10% | pest or weed control at 2 g/ha (Euphorbia heterophylla; 480 h, POST, 2 gai/ha, 20 DAT): 10% | inhibition at 8 g/ha (Euphorbia heterophylla; 480 h, POST, EPHHL, 8 gai/ha, 20 DAT, read-out: % activity solo application): 30% | inhibition at 4 g/ha (Euphorbia heterophylla; 480 h, POST, EPHHL, use rate 4 gai/ha, 20 DAT): 50% | inhibition at 8 g/ha (Euphorbia heterophylla; 480 h, POST, EPHHL, use rate 8 gai/ha, 20 DAT, read-out: % activity): 60% | pest or weed control at 2 g/ha (Geranium pusillum; 432 h, POST, GERPU, I-2 solo 2 gai/ha, 18 DAT): 40% | pest or weed control at 8 g/ha (Geranium pusillum; 432 h, POST, GERPU, I-2 solo 8 gai/ha, 18 DAT): 50% | inhibition at 2 g/ha (Geranium pusillum; 480 h, GERPU POST, 20 DAT): 20% | pest or weed control at 2 g/ha (Geranium pusillum; 480 h, POST, 2 gai/ha, 20 DAT): 20% | pest or weed control at 8 g/ha (Geranium pusillum; 480 h, POST, 8 gai/ha, 20 DAT): 25% | inhibition at 2 g/ha (Geranium pusillum; POST, GERPU): 30% | inhibition at 2 g/ha (Ipomoea hederacea; 480 h, IPOHE POST, 20 DAT, use rate 2 gai/ha, read-out: % activity): 30% | inhibition at 8 g/ha (Ipomoea hederacea; 480 h, IPOHE POST, 20 DAT, use rate 8 gai/ha, read-out: % activity): 80% | pest or weed control at 2 g/ha (Ipomoea hederacea; 480 h, POST, 2 gai/ha, 20 DAT): 30% | pest or weed control at 8 g/ha (Ipomoea hederacea; 480 h, POST, 8 gai/ha, 20 DAT): 80% | inhibition at 2 g/ha (Ipomoea hederacea; 480 h, POST, IPOHE, 2 gai/ha, 20 DAT, read-out: % activity solo application): 30% | inhibition at 2 g/ha (Ipomoea hederacea; 480 h, POST, IPOHE, use rate 2 gai/ha, 20 DAT, read-out: % activity): 10% | inhibition at 4 g/ha (Ipomoea hederacea; 480 h, POST, IPOHE, use rate 4 gai/ha, 20 DAT): 35% | inhibition at 2 g/ha (Ipomoea hederacea; POST, IPOHE, use rate 2 gai/ha, read-out: % activity): 30%
